{"source": "paper PMC8374649", "about": "“IBI362 (LY3305677), a weekly-dose GLP-1 and glucagon receptor dual agonist, in Chinese adults with overweight or obesity: A randomised, placebo-controlled, multiple ascending dose phase 1b study” (EClinicalMedicine, 2021)", "key": {"Gcgr knockout (KO) mice": {"system": "Gcgr knockout (KO) mice", "settings": "cited from earlier work", "from_the_text": "(§1) IBI362 is a long-acting synthetic peptide analogue of mammalian OXM, with a fatty-acyl moiety to extend the half-life. […] Furthermore, a first-in-human single ascending dose ..."}, "healthy subjects": {"system": "healthy subjects", "settings": "single ascending dose; cited from earlier work", "from_the_text": "as §1"}, "mouse GLP-1 receptors": {"system": "mouse GLP-1 receptors", "settings": "in vitro; cited from earlier work", "from_the_text": "as §1"}, "human glucagon receptors": {"system": "human glucagon receptors", "settings": "in vitro; cited from earlier work", "from_the_text": "as §1"}, "mouse glucagon receptors": {"system": "mouse glucagon receptors", "settings": "in vitro; cited from earlier work", "from_the_text": "as §1"}, "mice": {"system": "mice", "settings": "cited from earlier work", "from_the_text": "as §1"}, "human GLP-1 receptors": {"system": "human GLP-1 receptors", "settings": "in vitro; cited from earlier work", "from_the_text": "as §1"}, "Glp1r KO mice": {"system": "Glp1r KO mice", "settings": "cited from earlier work", "from_the_text": "as §1"}, "[1]": {"assay": "Pharmacokinetics, non-compartmental, plasma concentration after subcutaneous dosing", "assay_type": "in vivo", "settings": "human; for Cmax / AUC(0-t): n = 8, geometric mean (CV%); for AUC(0-t): read-out: AUC0–168h", "method": "(§2) Pharmacokinetic parameters were assessed on pre-defined visits in all participants who received IBI362. […] Standard non-compartmental pharmacokinetics methods were used to analyze IBI362 plasma concentration data using Pkanalix 2020R1 (Lixoft, Antony, France). The values for Cmax and Tmax were taken directly from the observed plasma concentration data. The terminal-phase disposition rate constant (λz) was estimated using a log-linear regression of the concentration data in the terminal disposition phase, and T1/2 was estimated as ln(2)/λz. Immunogenicity was assessed by measures of anti-drug antibody-positive responses.\nSafety analyses were done in the safety population (defined as all participants who received at least one dose of the study treatment). Pharmacokinetic analyses were done in the pharmacokinetic population (defined as all participants who received at least one dose of IBI362 and had at least one valid plasma concentration assessment). Pharmacodynamic analyses were done in the pharmacodynamic population (defined as all participants who received at least one dose of the study treatment and had baseline and at least one valid assessment). Efficacy analyses were done in the efficacy population (defined as all participants who received at least one dose of the study treatment and had at least one post-baseline assessment)."}, "[2]": {"assay": "Immunogenicity, anti-drug antibody-positive responses", "assay_type": "in vivo, human", "method": "as §2"}, "[3]": {"settings": "1 mg, after first sc dose, 1.0–2.0–3.0 mg regimen"}, "[4]": {"settings": "1.5 mg, after first sc dose, 1.5–3.0–4.5 mg regimen"}, "[5]": {"settings": "2 mg, after first sc dose, 2.0–4.0–6.0 mg regimen"}}, "note": "Where two headings read alike, the source gives them in different places.", "data": [{"smiles": "CC(C)C[C@H](NC(=O)[C@H](CC(C)C)NC(=O)[C@H](Cc1c[nH]c2ccccc12)NC(=O)[C@H](CCC(=O)O)NC(=O)[C@@H](NC(=O)[C@H](Cc1ccccc1)NC(=O)[C@H](CCC(=O)O)NC(=O)[C@H](CCCCNC(=O)COCCOCCNC(=O)COCCOCCNC(=O)CC[C@H](NC(=O)CCCCCCCCCCCCCCCCCCC(=O)O)C(=O)O)NC(=O)[C@H](C)NC(=O)[C@H](CCCCN)NC(=O)[C@H](CCCCN)NC(=O)[C@H](CCC(=O)O)NC(=O)[C@H](CC(=O)O)NC(=O)[C@H](CC(C)C)NC(=O)[C@H](Cc1ccc(O)cc1)NC(=O)[C@H](CCCCN)NC(=O)[C@H](CO)NC(=O)[C@H](Cc1ccc(O)cc1)NC(=O)[C@H](CC(=O)O)NC(=O)[C@H](CO)NC(=O)[C@@H](NC(=O)[C@H](Cc1ccccc1)NC(=O)[C@@H](NC(=O)CNC(=O)[C@H](CCC(N)=O)NC(=O)C(C)(C)NC(=O)[C@@H](N)Cc1c[nH]cn1)[C@@H](C)O)[C@@H](C)O)C(C)C)C(=O)N[C@@H](CCC(=O)O)C(=O)NCC(=O)NCC(=O)N1CCC[C@H]1C(=O)N[C@@H](CO)C(=O)N[C@@H](CO)C(=O)NCC(N)=O", "note": "[IBI362]", "values": [{"measurement": "Body weight", "setting": "Gcgr knockout (KO) mice", "value": "decreased body weight"}, {"measurement": "Safety, glycaemic improvement and weight loss", "setting": "healthy subjects", "value": "demonstrated the safety, glycaemic improvement and weight loss"}, {"measurement": "Binding to mouse GLP-1 receptors", "setting": "mouse GLP-1 receptors", "value": "potently bound"}, {"measurement": "Binding to human glucagon receptors", "setting": "human glucagon receptors", "value": "potently bound"}, {"measurement": "Binding to mouse glucagon receptors", "setting": "mouse glucagon receptors", "value": "potently bound"}, {"measurement": "Energy expenditure as compared with vehicle", "setting": "mice", "value": "increased energy expenditure"}, {"measurement": "Glucose control", "setting": "mice", "value": "improved glucose control"}, {"measurement": "Binding to human GLP-1 receptors", "setting": "human GLP-1 receptors", "value": "potently bound"}, {"measurement": "Body weight", "setting": "Glp1r KO mice", "value": "decreased body weight"}, {"measurement": "Cmax", "setting": "[1]; [3]", "value": 82.4, "unit": "ng/mL"}, {"measurement": "AUC(0-t)", "setting": "[1]; [3]", "value": 12500, "unit": "ng·h/mL"}, {"measurement": "Tmax", "setting": "[1]; 1 mg, after first sc dose, 1.0–2.0–3.0 mg regimen, n = 8, median (range), read-out: Tmax", "value": 71.9, "unit": "h"}, {"measurement": "Cmax", "setting": "[1]; [4]", "value": 99.6, "unit": "ng/mL"}, {"measurement": "AUC(0-t)", "setting": "[1]; [4]", "value": 15600, "unit": "ng·h/mL"}, {"measurement": "Tmax", "setting": "[1]; 1.5 mg, after first sc dose, 1.5–3.0–4.5 mg regimen, n = 8, median (range), read-out: Tmax", "value": 84.5, "unit": "h"}, {"measurement": "Cmax", "setting": "[1]; [5]", "value": 134, "unit": "ng/mL"}, {"measurement": "AUC(0-t)", "setting": "[1]; [5]", "value": 19200, "unit": "ng·h/mL"}, {"measurement": "Tmax", "setting": "[1]; 2 mg, after first sc dose, 2.0–4.0–6.0 mg regimen, n = 8, median (range), read-out: Tmax", "value": 71.9, "unit": "h"}, {"measurement": "Tmax", "setting": "[1]; first sc doses, all cohorts, read-out: median Tmax", "value": 72, "unit": "h"}, {"measurement": "Participants who developed anti-IBI362 antibody", "setting": "[2]; 3.0 mg cohort", "value": "One"}, {"measurement": "Participants who developed anti-IBI362 antibody", "setting": "[2]; 4.5 mg cohort", "value": "one"}]}]}
